# Biological target: T1, endogenous hCBS in HepG2 cells (Homo sapiens, UniProt P35520)
# T1 construct: effects of CH004 on the activity of endogenous CBS by incubating with HepG2; endogenous in cells; host or cells: HepG2
# T1 sequence (P35520 1-551): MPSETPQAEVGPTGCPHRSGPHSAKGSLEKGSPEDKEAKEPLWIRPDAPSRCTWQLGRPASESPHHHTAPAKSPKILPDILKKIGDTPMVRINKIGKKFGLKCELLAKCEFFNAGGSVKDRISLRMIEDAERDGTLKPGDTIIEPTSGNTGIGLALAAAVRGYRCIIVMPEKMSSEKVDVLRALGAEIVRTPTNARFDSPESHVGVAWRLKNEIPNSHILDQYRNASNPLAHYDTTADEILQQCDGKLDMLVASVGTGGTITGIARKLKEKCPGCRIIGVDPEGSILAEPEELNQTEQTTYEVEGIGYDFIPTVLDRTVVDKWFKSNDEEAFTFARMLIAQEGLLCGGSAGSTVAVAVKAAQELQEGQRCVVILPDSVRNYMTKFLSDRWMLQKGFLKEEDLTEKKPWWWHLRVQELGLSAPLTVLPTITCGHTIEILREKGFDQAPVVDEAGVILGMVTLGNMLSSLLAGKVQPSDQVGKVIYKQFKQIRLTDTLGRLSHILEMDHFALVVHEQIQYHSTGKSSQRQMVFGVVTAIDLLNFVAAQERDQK
# Test: endogenous H2S in HepG2 cells (AzMC probe)
# Assay type: cell-based
# Conditions: for decrease in H2S: HepG2
# Method: Fig. 3 The effect of CH004 on the activity of endogenous hCBS in cells. a CH004 dose-dependently elevates the levels of Hcys in HepG2 and HEK293T cells. HepG2 cells or HEK293T cells were incubated with indicated CH004 or DMSO (control) for 12 h. The amount of total Hcys in cells was measured by ELISA using Axis® Homocysteine EIA kit (IBL, AX51301) (“Materials and Methods” section). […] HepG2 cells were treated with indicated DMSO, CH004 or HA for 8 h before the staining with AzMC probe. The amount of the H2S (blue) was quantified and is shown in (c). Bars, 50 μm. Control (CTR), DMSO group (100%). A representative fluorescence image from three independent experiments is shown. Means ± SDS (n = 3). d CH004 elevates Hcys in the peripheral blood of rats. The total Hcys of the blood samples collected from the anesthetized rats at the 75 min time point (Materials and Methods) were quantified by ELISA (see above). Means ± SDS (n = 6).
# H2S levels in living cells were detected using a H2S-specific fluorescent probe according to a protocol described previously[31],[55]. To measure H2S in transiently transfected HEK293T cells, the cells were seeded on poly-D-Lys-coated coverslips (Thermo Scientific, Waltham, MA, USA) in 12-well plates at a density of ~ 1 × 10^5 cells per well, and hCBS or hCSE plasmids were transiently transfected by X-tremeGENE HP DNA Transfection Reagent according to the manufacturer’s protocol (Roche, Basel, Switzerland). After 24 h, the transfected cells were treated with DMSO or inhibitors for another 8 h, followed by staining with 7-azide-4-methylcoumarin (AzMC; Sigma-Aldrich). Similarly, HEK293T cells stably expressing CBS WT, Q222A mutant or EV were seeded on poly-D-Lys-coated coverslips in 12-well plates for one day before treatment with DMSO or inhibitors for 8 h. After incubation with 50 μM AzMC at 37 °C for 30 min, the cells were washed 4 times with PBS, and the fluorescent images were recorded with excitation by 405 nm laser by using a A1Si (Nikon) confocal microscope. The intensity of the blue fluorescent signals, indicating the amount of H2S, was quantified by ImageJ software (NIH, Bethesda, ML). The H2S signal was then corrected for the background signal detected in HEK293T cells transiently or stably expressing of empty vector (HEK293T-EV) and normalized by the corresponding cell-occupying area and compared with the control (DMSO group, 100%). Similarly, the H2S signal in HepG2 cells was quantified by AzMC staining, corrected for the background signal outside the cells, normalized by the cell area and expressed as percentages of DMSO control (100%).
# To elucidate the subcellular localization of H2S, HepG2 cells were seeded on poly-D-Lys-coated coverslips in 12-well plates. After treatment with DMSO or inhibitors for 8 h, cells were sequentially incubated with 200 nM Mito-Tracker® Green and 50 μM AzMC for 30 min at 37 °C in PBS, and then fluorescent images were taken using a confocal microscope.
# Figure S9. The effect of AOAA on the level of endogenous H2S in HepG2 cells. […] HepG2 cells were incubated with 0 (DMSO control), 1, 5 or 10 mM AOAA for 8 h before staining with 50 μM AzMC. Upper panels, the overlaid images; middle panels, the corresponding fluorescent images (blue, H2S); the lower panels, the bright-field images. Bars: 50 μm. (B) Quantification of the mean fluorescent density of H2S (blue). The intensity of H2S was accordingly quantified and normalized by correcting for the background signal outside cells. Data was expressed as percentages of the control (DMSO group, 100%). Means ± SDs (n=3). One-way ANOVA with Bonferroni post-tests was used for the analysis. *, p< 0.05; ***, p< 0.001; n.s. no significance. The images are one representative from three independent experiments.
structure (smiles),measurement,setting,value
"Cn1nc(Cc2ccccc2)nc2c(=O)n(C)c(=O)nc1-2 [CH004, 3-benzyl-1,6-dimethylpyrimido[5,4-e][1,2,4]triazine-5,7(1H,6H)-dione]",decrease in H2S,"5 μM, 8 h",~ 50%
same,decrease in H2S,"20 μM, 8 h",~ 90%
same,mitochondrial H2S,"8 h, Mito-tracker Green and AzMC",dose-dependently decreases
same,potency on inhibiting production of H2S in cells compared with AOAA,CH004 vs AOAA,at least 1000 fold

# — PMC6158189, “A pharmacological probe identifies cystathionine β-synthase as a new negative regulator for ferroptosis” (Cell Death & Disease, 2018)
